From US20260007674A1, “Novel Chemotypes for Treating Parasitic Diseases and Methods of Use” (The Medical College of Wisconsin, Inc., priority 2022, published 2026)
“Also recorded” adds a separate entry of the source.

How the values were obtained:
S. mansoni [1] = assay: Murine model of schistosomiasis, worm burden; format: in vivo, mice; conditions: 50 mg/kg intraperitoneal 1× daily for 3 days, FIG. 16; for worm burden: Female Swiss Webster mice, 7 weeks post-infection, recovery four days after first treatment
Protocol: (§1) All animal experiments followed ethical regulations approved by the MCW IACUC committee. At 7 weeks post-infection, mice were randomly sorted into 4 groups of 13 mice. One group was left untreated as a control. A second group was treated with vehicle (a mixture of DMSO/PEG400/H2O). A third group was treated with praziquantel (50 mg/kg, intraperitoneal, 1× daily) for 3 days in a row. In addition, a fourth group was treated with BZQ/S55 in the same fashion as praziquantel. Four days after the first treatment, the mice were euthanized, and the mesenteric vasculature was dissected in the usual fashion to recover schistosomes. The worm burden from each mouse was individually plotted (FIG. 16). There was no significant difference between untreated mice and mice treated with vehicle, confirming that the vehicle the drugs were dosed in had no effect on worm burden.

S. mansoni [2] = assay: Adult schistosome movement assay ex vivo (contraction and paralysis); format: cell-based, Schistosoma mansoni
Protocol: It was observed that N-amidoquinazolinones contract S. mansoni in a manner similar to the channel activator (and standard of treatment) praziquantel. Adult schistosomes were harvested from the mesenteric vasculature of female Swiss Webster mice previously infected (˜49 days earlier). Harvested schistosomes were washed in RPMI 1640 supplemented with 5% heat inactivated FBS, HEPES, and penicillin-streptomycin. After isolation, worms were incubated overnight in vented petri dishes. Movement assays were performed using male and female worms in six well dishes (˜5 individual worms/3 ml media per well). Schistosomes were treated with a molecule such as compound 4, and video recordings of worm motility were captured using a stereomicroscope coupled to a CCD camera. […] It was also observed that 2-amidoacrylates or 2-amidoacrylamides contract S. mansoni in a manner similar to the channel activator (and standard of treatment) praziquantel. The worm mobility assay performed in FIG. 13 is same as that performed in FIG. 3. Briefly, adult schistosomes were harvested from the mesenteric vasculature of female Swiss Webster mice previously infected (˜49 days earlier). Harvested schistosomes were washed in RPMI 1640 supplemented with 5% heat inactivated FBS, HEPES, and penicillin-streptomycin. After isolation, worms were incubated overnight in vented petri dishes. […]

S. mansoni [3] = assay: Electron microscopy of tegument of treated S. mansoni; format: cell-based, Schistosoma mansoni; conditions: FIG. 17H, 17I
Fasciola hepatica = assay: Ex vivo treatment of immature and adult F. hepatica (contraction, motility, viability); format: cell-based
Protocol: Briefly, Male Wistar rats served as the final host to obtain immature and adult stages of F. hepatica after infection with metacercariae from an Italian strain of F. hepatica. Immature flukes were collected from livers 4 weeks post-infection. Adult flukes were collected from bile ducts at 12 weeks post-infection. Worms were kept for 1 h in normal saline to allow clearance of gut contents and then used for experiments. In vitro experiments were performed utilizing a similar procedure as previously reported. Excised worms were treated with different concentrations of praziquantel, triclabendazole, BZQ/S55, S5, and S69, or DMSO as a negative control. The flukes were incubated at 37° C. in a 5% CO2 atmosphere for 72 h, and inhibitor-induced effects on worm viability were assessed using a stereomicroscope at 10× magnification. Worm motility was assessed using the following scores: 3 (normal motility), 2 (reduced motility), 1 (minimal and sporadic movements), and 0 (no movement even upon mechanical stimulation with forceps; considered dead). Representative results from these studies are shown FIGS. 17A-L.

F. hepatica = assay: Electron microscopy of tegument of treated F. hepatica; format: cell-based, Fasciola hepatica; conditions: FIGS. 17K and 17L
Excerpt: FIGS. 17A-L show representative BZQ/S55 ex vivo activities on Fasciola hepatica adults and immature worms.

[4] = Toxicity observation in treated mice of the schistosomiasis model; format: in vivo; conditions: 50 mg/kg intraperitoneal 1× daily for 3 days
Protocol: as §1

| SMILES | worm burden (S. mansoni [1]) | effect on Schistosomes (S. mansoni [2]; Praziquantel 500 nM, FIG. 17A) | tegument of S. mansoni in electron microscopy image (S. mansoni [3]) | effect on Fasciola hepatica (Fasciola hepatica; praziquantel 50 μM, FIG. 17B) | tegument of F. hepatica in electron microscopy image (F. hepatica) | efficacy compared with praziquantel, the standard of treatment (S. mansoni [1]) | effect on Schistosomes (S. mansoni [2]; treated with BZQ/S55, FIG. 17C) | toxicity [4] | ex vivo activity on Fasciola hepatica adults and immature worms (Fasciola hepatica; immature (4 weeks post-infection) and adult (12 weeks) flukes from rats) | effect on Fasciola hepatica (Fasciola hepatica; treated with BZQ/S55, FIG. 17C) |
| --- | --- | --- | --- | --- | --- | --- | --- | --- | --- | --- |
| O=C(C1CCCCC1)N1CC(=O)N2CCc3ccccc3C2C1 (stereo not drawn) [Praziquantel, praziquantel, reference compound] | significant reduction in worm burden | rapid, spastic paralysis | tegument was destroyed | Neither treatment has an effect |  |  |  |  |  |  |
| O=C(Nn1c(-c2cccc(Cl)c2)nc2ccccc2c1=O)c1ccccc1 [BZQ/S55, N-(2-(3-chlorophenyl)-4-oxoquinazolin-3(4H)-yl)benzamide] | significant reduction in worm burden |  | tegument was destroyed |  | notable tegument damage | as effective as praziquantel | mimics praziquantel on schistosomes; also recorded: Rapid, sustained contraction and paralysis | no toxicity was noticed | active ex vivo | Rapid, sustained contraction and paralysis |
